Results reported in article doi:10.1101/2023.04.01.534865v1 (biorxiv, 2023).

Target: T1, GST-OSBP(377-807) (Homo sapiens, UniProt P22059)
T1 sequence (P22059 377-807): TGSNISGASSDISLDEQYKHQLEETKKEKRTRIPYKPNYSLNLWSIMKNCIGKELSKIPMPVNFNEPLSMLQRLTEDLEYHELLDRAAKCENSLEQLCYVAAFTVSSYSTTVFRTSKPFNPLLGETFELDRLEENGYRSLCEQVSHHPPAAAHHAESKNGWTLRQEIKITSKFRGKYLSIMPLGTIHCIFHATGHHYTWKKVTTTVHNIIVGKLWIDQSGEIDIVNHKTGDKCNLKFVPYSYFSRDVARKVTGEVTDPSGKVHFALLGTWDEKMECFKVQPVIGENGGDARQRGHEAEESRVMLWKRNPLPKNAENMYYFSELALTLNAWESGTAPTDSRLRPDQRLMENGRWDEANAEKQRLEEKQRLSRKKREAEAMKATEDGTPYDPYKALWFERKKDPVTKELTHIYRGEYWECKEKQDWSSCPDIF
Experiment: competitive fluorescence polarization
Format: binding

| Compound | IC50 [nM] |
| --- | --- |
| C[C@H](CCC(=O)NCCCOCCCCOCCCNC(=O)CC12CC3CC(CC(C3)C1)C2)[C@H]1CC[C@H]2[C@@H]3CC=C4C[C@@H](O)CC[C@]4(C)[C@H]3CC[C@]12C [C3_HyT, oxybipin-1] | 142 |
| C[C@H](CCC(=O)NCCCOCCCCOCCCNC(=O)OC(C)(C)C)[C@H]1CC[C@H]2[C@@H]3CC=C4C[C@@H](O)CC[C@]4(C)[C@H]3CC[C@]12C [C3_Boc, oxybipin-2] | 74 |
